{"source": "patent US4353986A", "about": "“Process for producing antibiotic nanaomycin E” (priority 1978, dated 1982)", "key": {"[1]": {"assay": "acute toxicity (LD50) in mice", "conditions": "mouse, in vivo, iv; interaneveously administered to mice", "text": "(§1) Thus, nanaomycin E is of interest as an antibacterial and therapeutic agent for humans and animals."}, "[2]": {"system": "Gram-positive bacteria, Trichophyton and Mycoplasma", "conditions": "cited from earlier work"}, "[3]": {"system": "Nocardia asteroides", "assay": "antibacterial spectrum, MIC by agar dilution", "format": "cell-based", "conditions": "nutrient agar pH 7.0, 37° C., 20 hours"}, "[4]": {"system": "Bacillus subtilis PCI 219", "assay": "antibacterial spectrum, MIC by agar dilution", "format": "cell-based", "conditions": "PCI219, nutrient agar pH 7.0, 37° C., 20 hours"}, "[5]": {"system": "Trichophyton mentagrophytes", "assay": "antifungal spectrum, MIC by agar dilution", "format": "cell-based", "conditions": "potato-agar pH 6.4, 27° C., 70 hours"}, "[6]": {"system": "Aspergillus niger ATCC 6275", "assay": "antifungal spectrum, MIC by agar dilution", "format": "cell-based", "conditions": "ATCC6275, potato-agar pH 6.4, 27° C., 70 hours"}, "[7]": {"system": "Staphylococcus aureus FS 1277 (penicillin-resistant)", "assay": "antibacterial spectrum, MIC by agar dilution", "format": "cell-based", "conditions": "nutrient agar pH 7.0, 37° C., 20 hours"}, "[8]": {"system": "Candida albicans", "assay": "antifungal spectrum, MIC by agar dilution", "format": "cell-based", "conditions": "potato-agar pH 6.4, 27° C., 70 hours"}, "[9]": {"system": "Proteus vulgaris IFO 3167", "assay": "antibacterial spectrum, MIC by agar dilution", "format": "cell-based", "conditions": "IFO3167, nutrient agar pH 7.0, 37° C., 20 hours"}, "[10]": {"system": "Escherichia coli NIHJ", "assay": "antibacterial spectrum, MIC by agar dilution", "format": "cell-based", "conditions": "nutrient agar pH 7.0, 37° C., 20 hours"}, "[11]": {"system": "Piricularia oryzae", "assay": "microbe, parasite or virus in culture", "format": "cell-based", "conditions": "pH 6.4; 27° C., 70 hours"}, "[12]": {"system": "Trichophyton interdigitale", "assay": "antifungal spectrum, MIC by agar dilution", "format": "cell-based", "conditions": "potato-agar pH 6.4, 27° C., 70 hours"}, "[13]": {"system": "Saccharomyces sake", "assay": "antifungal spectrum, MIC by agar dilution", "format": "cell-based", "conditions": "potato-agar pH 6.4, 27° C., 70 hours"}, "[14]": {"system": "Shigella sonnei E 33", "assay": "antibacterial spectrum, MIC by agar dilution", "format": "cell-based", "conditions": "E33, nutrient agar pH 7.0, 37° C., 20 hours", "experimental": "(§2) The antibacterial and antifungal spectrum of nanaomycin E is shown in Table 1, in which the minimum inhibitory concentration (MIC) is determined by the agar dilution method. In the case of bacteria, the determination was made after culturing at 37° C. for 20 hours by using a nutrient agar having a pH of 7.0 and, in the cases of fungi, the determination was made after culturing at 27° C. for 70 hours by using a potato-agar having a pH of 6.4."}, "[15]": {"system": "Salmonella typhimurium", "assay": "antibacterial spectrum, MIC by agar dilution", "format": "cell-based", "conditions": "Salmonella enterica, nutrient agar pH 7.0, 37° C., 20 hours"}, "[16]": {"system": "Staphylococcus aureus FDA 209P", "assay": "antibacterial spectrum, MIC by agar dilution", "format": "cell-based", "conditions": "FDA209P, nutrient agar pH 7.0, 37° C., 20 hours"}, "[17]": {"system": "Bacillus cereus T", "assay": "antibacterial spectrum, MIC by agar dilution", "format": "cell-based", "conditions": "nutrient agar pH 7.0, 37° C., 20 hours"}, "[18]": {"system": "Trichophyton rubrum", "assay": "antifungal spectrum, MIC by agar dilution", "format": "cell-based", "conditions": "potato-agar pH 6.4, 27° C., 70 hours"}, "[19]": {"system": "Sarcina lutea PCI 1001", "assay": "antibacterial spectrum, MIC by agar dilution", "format": "cell-based", "conditions": "Micrococcus luteus, PCI1001, nutrient agar pH 7.0, 37° C., 20 hours"}, "[20]": {"system": "Mycobacterium smegmatis ATCC 607", "assay": "antibacterial spectrum, MIC by agar dilution", "format": "cell-based", "conditions": "Mycolicibacterium smegmatis, ATCC607, nutrient agar pH 7.0, 37° C., 20 hours"}, "[21]": {"assay": "solubility", "format": "physicochemical"}, "[22]": {"system": "Trichophyton schoenleini", "assay": "antifungal spectrum, MIC by agar dilution", "format": "cell-based", "conditions": "potato-agar pH 6.4, 27° C., 70 hours"}, "[23]": {"system": "Gram-positive bacteria and fungi", "assay": "activity against Gram-positive bacteria and fungi compared with nanaomycin A and D", "format": "cell-based", "experimental": "as §2, §1"}, "[24]": {"system": "Pseudomonas aeruginosa P 3", "assay": "antibacterial spectrum, MIC by agar dilution", "format": "cell-based", "conditions": "P3, nutrient agar pH 7.0, 37° C., 20 hours"}, "[25]": {"system": "Staphylococcus aureus KB 64 (erythromycin- and tetracycline-resistant)", "assay": "antibacterial spectrum, MIC by agar dilution", "format": "cell-based", "conditions": "nutrient agar pH 7.0, 37° C., 20 hours"}, "[26]": {"system": "Microsporum gypseum", "assay": "antifungal spectrum, MIC by agar dilution", "format": "cell-based", "conditions": "Nannizzia gypsea, potato-agar pH 6.4, 27° C., 70 hours"}}, "data": [{"smiles": "CC1OC(CC(=O)O)CC2=C1C(=O)c1c(O)cccc1C2=O", "note": "(stereo not drawn) [nanaomycin A]", "values": [{"measurement": "LD50", "setting": "[1]", "value": 46, "unit": "mg/kg"}, {"measurement": "antibiotic activity", "setting": "[2]; against Gram-positive bacteria, Trichophyton and Mycoplasma, known compound", "value": "having antibiotic activity against Gram-positive bacteria, Trichophyton and Mycoplasma"}, {"measurement": "activity against Gram-positive bacteria, Trichophyton and Mycoplasma", "setting": "[2]; among nanaomycin-type compounds", "value": "exhibits the strongest activity"}]}, {"smiles": "CC1OC2CC(=O)OC2C2=C1C(=O)c1c(O)cccc1C2=O", "note": "(stereo not drawn) [nanaomycin D]", "values": [{"measurement": "LD50", "setting": "[1]", "value": 1.5, "unit": "mg/kg"}]}, {"smiles": "CC1OC(CC(=O)O)CC23OC12C(=O)c1c(O)cccc1C3=O", "note": "(stereo not drawn) [nanaomycin E]", "values": [{"measurement": "MIC", "setting": "[3]", "value": "> 100", "unit": "µg/mL"}, {"measurement": "LD50", "setting": "[1]", "value": 60, "unit": "mg/kg"}, {"measurement": "MIC", "setting": "[4]", "value": 12.5, "unit": "µg/mL"}, {"measurement": "MIC", "setting": "[5]", "value": 50, "unit": "µg/mL"}, {"measurement": "MIC", "setting": "[6]", "value": "> 100", "unit": "µg/mL"}, {"measurement": "MIC", "setting": "[7]", "value": 25, "unit": "µg/mL"}, {"measurement": "MIC", "setting": "[8]", "value": "> 100", "unit": "µg/mL"}, {"measurement": "MIC", "setting": "[9]", "value": 25, "unit": "µg/mL"}, {"measurement": "MIC", "setting": "[10]", "value": 50, "unit": "µg/mL"}, {"measurement": "MIC", "setting": "[11]", "value": 100, "unit": "µg/mL"}, {"measurement": "MIC", "setting": "[12]", "value": 50, "unit": "µg/mL"}, {"measurement": "MIC", "setting": "[13]", "value": "> 100", "unit": "µg/mL"}, {"measurement": "MIC", "setting": "[14]", "value": "> 100", "unit": "µg/mL"}, {"measurement": "MIC", "setting": "[15]", "value": "> 100", "unit": "µg/mL"}, {"measurement": "MIC", "setting": "[16]", "value": 25, "unit": "µg/mL"}, {"measurement": "MIC", "setting": "[17]", "value": 12.5, "unit": "µg/mL"}, {"measurement": "MIC", "setting": "[18]", "value": 50, "unit": "µg/mL"}, {"measurement": "MIC", "setting": "[19]", "value": 25, "unit": "µg/mL"}, {"measurement": "MIC", "setting": "[20]", "value": "> 100", "unit": "µg/mL"}, {"measurement": "Solubility", "setting": "[21]; in methanol, ethanol, ethyl acetate, butyl acetate etc.", "value": "Easily soluble"}, {"measurement": "Solubility", "setting": "[21]; in n-hexane, petroleum ether etc.", "value": "Insoluble"}, {"measurement": "MIC", "setting": "[22]", "value": 50, "unit": "µg/mL"}, {"measurement": "activity against Gram-positive bacteria and fungi relative to nanaomycin A and D", "setting": "[23]", "value": "approximately equal to or somewhat weaker than the activities of nanaomycin A and D"}, {"measurement": "MIC", "setting": "[24]", "value": "> 100", "unit": "µg/mL"}, {"measurement": "MIC", "setting": "[25]", "value": 25, "unit": "µg/mL"}, {"measurement": "MIC", "setting": "[26]", "value": 100, "unit": "µg/mL"}]}]}
